These are literature values, as cited in paper PMC11910062 (Drug Design, Development and Therapy, 2025).

What is called Cmax is the peak of the concentration-time curve.

Each structure is given as a SMILES string.

The conditions of series [1]: CLEAR Outcomes study.
The conditions of series [2]: ref submission materials for new drug application.

For the molecule `CC(C)(CCCCCC(O)CCCCCC(C)(C)C(=O)O)C(=O)O` [Nexletol, bempedoic acid], the “4 major adverse cardiovascular events (4-MACE) reduction compared with placebo group” value in series [1] was −13%. The Cmax in series [2] (180 mg dose of Nexletol) was 19950 ng/mL. Also, the LDL-C reduction in series [2] (180 mg of Nexletol) was 26%.
